Data from PMC8481502, “Bovine NK-lysin peptides exert potent antimicrobial activity against multidrug-resistant Salmonella outbreak isolates” (Scientific Reports, 2021).

Tests used:
[1] = tested on: Salmonella enterica serovar Typhimurium isolate UK-1 (SB377, non-MDR); assay: Growth curve assay (automated reader, OD600) with isolate SB377; format: cell-based; conditions: for time at which bacteria recovered and grew after initial inhibition: SB377, LB broth
Method: (§1) Overnight cultures of a MDR Salmonella outbreak isolate (SX238) and one non-MDR Salmonella isolate (SB377) were diluted 1:1000 in LB broth to obtain approximately 1 × 10^6 colony forming units per milliliter (CFU/mL). One hundred microliters of each diluted culture were transferred into honeycomb® 100-well plates (~ 1 × 10^5 CFU/well) (Growth Curves USA, Piscataway, NJ). Bovine NK-lysin peptides (NK1, NK2A, NK2B, and NK2C) were added at the final peptide concentrations of 20, 10, 5, 3.5, 2 µM in PBS (total volume = 20 µL) with a final bacterial-peptide volume of 120 µL/well. The plates were covered with lids and placed in an automated growth curve reader (Bioscreen C; Growth Curves USA, Piscataway, NJ) which was programmed for continuous shaking at 37 °C, and optical density readings at 600 nm (OD600) were recorded every hour for 24 h. […] The optical density data were analyzed, and growth curve graphs for each isolate were generated using MS Excel. […] Twenty-four-hour growth curve assays for Salmonella isolate SX238 were repeated at different bacterial CFU (~ 1 × 10^5, 1 × 10^6, 1 × 10^7, and 1 × 10^8 CFU/mL) with NK2A (5 µM and 10 µM). Sc-NK2A was included as a control for the assay.

[2] = tested on: MDR Salmonella enterica serovar I 4,[5],12:i:- strain USDA15WA-1 (SX238); assay: Growth curve assay (automated reader, OD600) with isolate SX238; format: cell-based; conditions: for time at which bacteria recovered and grew after initial inhibition: SX238, LB broth
Method: as §1

[3] = tested on: Salmonella isolates (MDR and non-MDR); assay: Growth curve assay, statements over all Salmonella isolates; format: cell-based; conditions: 24 h incubation in LB broth, MDR and non-MDR isolates
Method: as §1

[4] = tested on: Swiss-Webster mice; assay: Mouse study of in vivo cytotoxic effects; conditions: single intraperitoneal dose 100 µg (~ 4 mg/kg) in PBS, female Swiss-Webster mice, 5 per cage, 2-week observation
Method: To determine whether NK-lysin peptides show in vivo cytotoxic effects, a mouse study was conducted. Briefly, thirty 5–6 weeks old female Swiss-Webster mice (Envigo, Indianapolis, IN) were housed in groups in six individual cages (5 mice per cage) in ABSL2 facilities with ad libitum access to food and water in a 12-h light:dark cycle. After 1 week of acclimation, mice were intraperitoneally injected with a single dose of 100 µg of NK-lysin peptides (NK1, NK2A, NK2B, NK2C, or Sc-NK2A, ~ 4 mg/kg of body weight) in PBS (1 mL). Mice injected with PBS (1 mL) served as a negative control for the study. Mice were daily observed for any signs of toxicity and were euthanized 2 weeks post peptide administration.

[5] = tested on: MDR Salmonella outbreak isolate SX238 cytoplasmic membrane; assay: Propidium iodide (PI) uptake assay; format: cell-based, Salmonella enterica serovar I 4,[5],12:i:-
Method: The kinetics of NK2A-induced damage to Salmonella cell membranes were evaluated using PI uptake assay as described previously. Briefly, an overnight culture of MDR Salmonella outbreak isolate SX238 was centrifuged, washed with PBS, and resuspended in PBS. Ninety microliters of bacterial suspension was transferred to a 96-well opaque plate (~ 1 × 10^7 CFU/well), mixed with 10 µL of PI (final concentration = 3 µM) and incubated at 37 °C for 5 min. PBS, polymyxin B (2, 4, 25, 50 and 100 µg/mL), NK2A or Sc-NK2A (both at 2 and 5 µM) were added and PI fluorescent intensities in each well was continuously measured (15 s intervals, flex mode) using a FlexStation 3 multi-mode (fluorescent) microplate reader (Molecular Devices LLC., San Jose, CA) for up to 6 h. The excitation and emission wavelengths for PI was set up at 530 nm and 620 nm, respectively.

[6] = up to 20 µM peptide, LB broth, 24 h growth curve

TVIEAASKVCGKMGPLKGLCKSITKRFLRR [NK2B, 30-mer peptide corresponding to functional region helices 2-loop-3 of bovine NK-lysin NK2B]
peptide concentration at which growth of SB377 was completely inhibited ([1]; LB broth, ~1 × 10^5 CFU/well, 37 °C, OD600 every hour for 24 h, tested 2-20 µM): ≥ 5 µM | peptide concentration at which growth of SX238 was completely inhibited ([2]; LB broth, ~1 × 10^5 CFU/well, 37 °C, OD600 every hour for 24 h, tested 2-20 µM, at least three experiments): ≥ 5 µM | concentrations able to inhibit growth of Salmonella during 24 h [3]: 3.5 to 5 µM | signs of toxicity or death [4]: did not show signs of toxicity or death

TVIEEASKVCSKMRLLKGLCKSIMKKFLRT [NK2C, 30-mer peptide corresponding to functional region helices 2-loop-3 of bovine NK-lysin NK2C]
time at which bacteria recovered and grew after initial inhibition ([1]; 10 µM peptide): approximately 7 h | time at which bacteria recovered and grew after initial inhibition ([1]; 20 µM peptide): ~20 h | time at which bacteria recovered and grew after initial inhibition ([2]; 10 µM peptide): approximately 7 h | time at which bacteria recovered and grew after initial inhibition ([2]; 20 µM peptide): ~20 h | signs of toxicity or death [4]: did not show signs of toxicity or death

VIIHVTSKVCSKMGLWSILCNQMMKKYLNR [NK1, 30-mer peptide corresponding to functional region helices 2-loop-3 of bovine NK-lysin NK1]
growth inhibition activity on SB377 at highest tested concentration [1, 6]: did not show any Salmonella SX238 and SB377 growth inhibition activity | growth inhibition activity on SX238 at highest tested concentration [2, 6]: did not show any Salmonella SX238 and SB377 growth inhibition activity | signs of toxicity or death [4]: did not show signs of toxicity or death

polymyxin B [reference compound]
PI uptake signal ([5]; polymyxin B 2-100 µg/mL, 6 h observation): No PI uptake signal was observed | PI uptake signal ([5]; polymyxin B up to 100 µg/mL, 30 min observation): No PI uptake signal was observed
